# Measurements: PubChem BioAssay (NCI)
# “And” between values parts separate entries of the source, which are not always exact repeats. Identical values can stand only once.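 Exposure lasted 48 hours, with cells grown in 96-well plates and compounds tested at five concentrations. GI50 is the concentration that inhibits growth by half. TGI: total growth inhibition.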
# Legend:
# Test in all cases: inhibition of tumour cell growth, NCI panel, 48 h
# [1] = test system: PC-3 prostate
# [2] = test system: M14 melanoma
# [3] = test system: HOP-62 NSCLC
# [4] = test system: SNB-75 CNS
# [5] = test system: U251 CNS
# [6] = test system: SN12C renal
# [7] = test system: UACC-257 melanoma
# [8] = test system: MDA-MB-231 breast
# [9] = test system: SK-MEL-2 melanoma
# [10] = test system: MDA-MB-435
SMILES,GI50 [1] [µM],TGI [1] [µM],GI50 [2] [µM],TGI [2] [µM],GI50 [3] [µM],TGI [3],GI50 [4],TGI [4] [µM],GI50 [5] [µM],TGI [5],GI50 [6] [µM],TGI [6] [µM],GI50 [7] [µM],TGI [7],GI50 [8] [µM],TGI [8] [µM],GI50 [9] [µM],TGI [9],GI50 [10] [µM],TGI [10] [µM]
CN(C)CCNc1nc2ccccc2c2occc12,36,> 100,28.8,68.5,96.2,> 100 µM,11.8 µM,> 100,45.3,> 100 µM,27.7,82.5,28.9,68.2 µM,23.7,77.6,33.8,> 100 µM,54.5,> 100
CCN1C(=O)N(CC)C2C1NN=c1s/c(=C\c3cccc([N+](=O)[O-])c3)c(=O)n12 (stereo not drawn),0.0853,> 100,0.0533,> 100,0.104,> 100 µM,0.0378 µM,> 100,0.0542,> 100 µM,0.149,> 100,> 100,> 100 µM,0.231,,0.453,> 100 µM,0.0214,0.0504
Cc1ccc(C)c2c(N=Nc3ccccc3[N+](=O)[O-])c(O)[nH]c12,,> 100,,> 100,,> 100 µM,,> 100,,> 100 µM,,> 100,,> 100 µM,,> 100,,> 100 µM,,> 100
CSc1nc(N)c2c(n1)NC(c1ccccc1)C1CCc3ccccc3C1=N2 (stereo not drawn),2.56,> 100,11.9,> 100,> 100,> 100 µM,> 100 µM,> 100,> 100,> 100 µM,30.9,> 100,> 100,> 100 µM,> 100,> 100,4.13,8.54 µM,55.5,> 100
CC(C)(C)OC(=O)NCCCCCCCCCCn1c2c(c3ccccc3c1=O)C(=O)c1ccccc1-2,> 100,> 100,> 100,> 100,29.1,> 100 µM,5.92 µM,28.6,29,> 100 µM,> 100,> 100,> 100,> 100 µM,17.9,85.9,21.1,49.7 µM,> 100,> 100
C[C@@](O)(/C=C/[C@H]1CC=CC(=O)O1)[C@@H](C[C@@H](O)\C=C/C=C\C=C\CO)OP(=O)(O)O,,12.4,,2.69,10.1,29.5 µM and 12.1 µM,315 µM and 39.4 µM,,13.3,49 µM and 55.6 µM,,80.5,7.2,17.6 µM and 14.6 µM,,138,19.8,65.2 µM and 42.4 µM,,11.7
Clc1ccc(N2CCC(N3CCCC3)CC2)cc1-c1nc2ccccc2[nH]1,30.9,> 100,16.7,31.8,19.8,40.1 µM,15.5 µM,39,16.7,35.1 µM,25,> 73.7,17,32.9 µM,17.1,32.5,19.3,36.6 µM,17.7,35.7
